Patent US20030195168A1, “Therapeutic agents - III” (priority 2000, published 2003)

How the values were obtained:
[1] = test system: phorbol ester binding site of PKC; assay: [3H]-phorbol dibutyrate competition assay on rat brain homogenate
Procedure: A competition assay was performed to determine whether the diterpene esters of the instant invention bind to the phorbol ester binding site of PKC. […] This binding was not blocked by co-incubation with bisindolylmaleimide.

[2] = test system: Peripheral blood mononuclear cells (PBMC); assay: Respiratory burst (H2O2) in PBMC, DCFH-DA flow cytometry; type: cell-based; conditions: 10 μg/mL or 1 μg/mL, added at the same time as test compounds
Procedure: Experiments were also carried out using 2′,7′-dichlorofluorescein diacetate (DCFH-DA) to measure the production of H2O2.(J P Robinson, Oxidative burst methods, in Handbook of Flow Cytometry Methods, Wiley-Liss Inc, pp147-149, 1993). H2O2 oxidizes the non-fluorescent probe (DCFH-DA) to a fluorescent probe that can then be detected by a flow cytometer. Peripheral blood mononuclear cells (PBMC) were extracted from a donor blood sample by lysis of heparinized blood and used in a suspension of 1×10^6/mL of phosphate buffer, pH 7.3. The cells were then incubated with DCFH-DA (1 μL/mL of 20 mM stock) for 15 minutes to allow it to be taken up and trapped by hydrolysis with cellular esterases. The cells were then stimulated by test compounds for 15 min at 37° C. Controls included in the experiment were unloaded control (cells with no DCFH-DA) and loaded control (cells with DCFH-DA, but no stimulation). These were used to monitor the non-specific oxidation of unstimulated cells. The cells were then analyzed on the flow cytometer (excitation at 488 nm, emission at 525±20 nm), gating each sample for individual cell populations-granulocytes, monocytes and lymphocytes (Table 3).

[3] = test system: MM96L cells; assay: Effect of Euphorbiaceae saps on MM96L cells (cytotoxicity, bipolar dendritic phenotype); type: cell-based; conditions: 1 μg/mL or 10 μg/mL
Procedure: Sap was collected from Synadenium grantii, Synadenium compactum, Mondenium lugardae, Mondenium guentheri, Endadenium gossweileni, and E. peplus and serially diluted ten-fold up to 10^−7into sterile 1.5 mL Eppendorf™ tubes using growth medium. […] After 3 days, cells were examined for cytotoxicity or differentiation to a bipolar dendritic phenotype.

bisindolylmaleimide was tested, and the “binding to the phorbol ester binding site of PKC” value [1] was “does not”, the “block of the respiratory burst by PKC inhibitor” value [2] was “blocked the respiratory burst” and the “effect of PKC inhibitor on sap-induced differentiation of MM96L cells” value [3] was “this differentiation is inhibited”.
